The text below walks through data of ChEMBL document CHEMBL1151665, “Plant anticancer agents, XLI. Cardiac glycosides from Streblus asper” (1985).

This assay has as its system KB. Description: Cytotoxicity against human KB cells. The following applies: read-out: ED50.

SMILES strings stand for the structures. Values after ≈ are worked out from the molar mass of the structure shown.

For `CO[C@H]1[C@H](O[C@H]2CC[C@]3(C=O)[C@H]4CC[C@]5(C)[C@@H](C6=CC(=O)OC6)CC[C@]5(O)[C@@H]4CC[C@]3(O)C2)O[C@H](C)[C@@H](O)[C@@H]1OC` [MANSONIN], the EC50 was 0.042 µg/mL (≈ 0.0726 µM).
`CO[C@H]1[C@H](O[C@H]2CC[C@]3(C=O)[C@H]4CC[C@]5(C)[C@@H](C6=CC(=O)OC6)CC[C@]5(O)[C@@H]4CC[C@]3(O)C2)O[C@H](C)[C@H](O)[C@@H]1OC` [STREBLOSIDE]: the EC50 was 0.035 µg/mL (≈ 0.0605 µM).
